Results published in PMC6149668, “In Silico Identification and In Vitro Evaluation of Natural Inhibitors of Leishmania major Pteridine Reductase I” (Molecules : A Journal of Synthetic Chemistry and Natural …, 2017).
Like-named read-outs stand apart in the source and are kept apart here. One block for each compound: values may come before it.

Legend:
[1] = target: T1, recombinant LmPTR1 (Leishmania major pteridine reductase I) (Leishmania major, UniProt Q01782); experiment: biochemical; details: for % Inhibition at c = 50 µM: inhibitor 50 µM
T1 construct: poly-His (N); made in house; host or cells: E. coli BL21 (DE3)
Protocol: (§1) In order to assess the inhibitory activity of the compounds identified in silico, spectrophotometric inhibition assays were performed on recombinant LmPTR1, measuring the decreasing concentration of NADPH at 340 nm as a linear kinetic parameter for LmPTR1 activity at saturating concentrations of NADPH (co-substrate) and folic acid (substrate). First, each in silico hit was added to a concentration of 50 µM, and the resulting linear plots of absorbance vs. time were compared with those recorded in the absence of an inhibitor.
The determination of the inhibitory activity of the in silico hits was carried out by a UV-Vis spectrophotometric assay on recombinantly produced LmPTR1. In order to assess the catalytic activity of LmPTR1, the oxidation of NADPH to NADP^+ was followed with a Hitachi U-2900 UV-Vis spectrophotometer at 340 nm as a linear kinetic parameter. Reference measurements without the addition of inhibitors were used to determine the full catalytic activity (100% value), and subsequent measurements with inhibitory compounds were calculated accordingly. The total assay volume of 1 mL consisted of sodium phosphate buffer (50 mM NaH2PO4, 100 mM NaCl, pH 6), 250 µM NADPH, 35 µg LmPTR1, 22.5 µM folic acid, and varying inhibitor concentrations. The tested inhibitors were dissolved in DMSO (10 mM stock solutions), and appropriate volumes were added to the assays to obtain the desired assay concentrations in such a way that a DMSO concentration between 0.1–1% resulted. […] Initial tests were performed at an inhibitor concentration of 50 µM in triplicate.

[2] = Solubility under the LmPTR1 assay conditions; format: physicochemical; details: sodium phosphate buffer pH 6, DMSO 0.1–1%
Protocol: as §1, with “inhibitor. […] For 2,3-dehydrosilybin A (1), complete inhibition could not be achieved. The maximum of inhibition achieved with this compound was 64% at a concentration of 50 µM. […] Plots of the inhibitory activity as a function of concentration for compounds 1 to 6 are shown in the Supplementary Materials Figures S10–S15, and the resulting IC50 and EC50 values are reported in Table 1.” for “inhibitor.”
The determination of the inhibitory activity of the in silico hits was carried out by a UV-Vis spectrophotometric assay on recombinantly produced LmPTR1. […] Reference measurements without the addition of inhibitors were used to determine the full catalytic activity (100% value), and subsequent measurements with inhibitory compounds were calculated accordingly. […] No inhibition of LmPTR1 could be detected by DMSO itself at the mentioned concentrations. […]

[3] = pH 6, inhibitor 50 µM, 250 µM NADPH, 22.5 µM folic acid, pH 6, triplicate, n.i. = no inhibition at 50 µM, read-out: % Inhibition at c = 50 µM
[4] = in brackets: 95% confidence interval, n = 4 to 7 concentrations, non-linear regression, read-out: IC50
[5] = 250 µM NADPH, 22.5 µM folic acid, pH 6, triplicate, n.i. = no inhibition at 50 µM

T1 sequence (Q01782 whole entry): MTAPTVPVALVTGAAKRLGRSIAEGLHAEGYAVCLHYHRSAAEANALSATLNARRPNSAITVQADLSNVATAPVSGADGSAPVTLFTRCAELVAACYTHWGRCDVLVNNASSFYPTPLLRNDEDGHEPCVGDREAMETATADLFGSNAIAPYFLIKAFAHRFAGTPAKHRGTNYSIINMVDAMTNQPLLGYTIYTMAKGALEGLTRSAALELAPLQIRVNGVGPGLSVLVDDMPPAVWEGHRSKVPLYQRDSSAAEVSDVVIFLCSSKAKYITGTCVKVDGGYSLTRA

inhibition at 50 µM [1, 3]: 24%
Compound: COc1cc([C@@H]2Oc3c(O)cc([C@H]4Oc5cc(O)cc(O)c5C(=O)[C@@H]4O)cc3[C@H]2CO)ccc1O [silychristin]

inhibition at 50 µM [1, 3]: 14%
Compound: COc1cc([C@H]2Oc3cc([C@H]4Oc5cc(O)cc(O)c5C(=O)[C@@H]4O)ccc3O[C@@H]2CO)ccc1O [silybin A]

Compound: O=c1c(O)c(-c2cc(O)c(O)c(O)c2)oc2cc(O)cc(O)c12 [myricetin]
IC50 [1, 4]: 21 µM
inhibition at 50 µM ([1]; pH 6, read-out: % Inhibition at c = 50 µM, inhibitor 50 µM, 250 µM NADPH, 22.5 µM folic acid, pH 6, triplicate, n.i. = no inhibition at 50 µM): > 50%

% Inhibition at c = 50 µM [1, 5]: n.i.
Compound: COc1ccc([C@H]2OC[C@H]3[C@@H]2CO[C@@H]3c2cc(OC)c(OC)c(OC)c2)cc1OC [magnolin]

inhibition at 50 µM [1, 3]: 19%
Compound: COc1cc([C@@H]2Oc3cc([C@H]4Oc5cc(O)cc(O)c5C(=O)[C@@H]4O)ccc3O[C@H]2CO)ccc1O [silybin B]

inhibition at 50 µM [1, 3]: 24%
Compound: O=C(O[C@@H]1Cc2c(O)cc(O)cc2O[C@@H]1c1ccc(O)c(O)c1)c1cc(O)c(O)c(O)c1 [(−)-epicatechin-3-gallate]

inhibition at 50 µM [1, 3]: 22%
Compound: COc1cc(O)c(CC=C(C)C)c2c1C(=O)CC(c1ccc(O)cc1)O2 (stereo not shown) [isoxanthohumol]

Compound: O=c1cc(-c2ccc(O)cc2)oc2cc(OC3OC(CO)C(O)C(O)C3O)cc(O)c12 (stereo not shown) [apigenin-7-glucoside]
IC50 [1]: 43.5 µM
inhibition at 50 µM [1, 3]: > 50%

Compound: CC(C)=CCc1c(O)cc2oc3cc(O)c(O)c(CCC(C)(C)O)c3c(=O)c2c1O [garcinone C]
IC50 [1, 4]: 26.3 µM

Compound: O=C(/C=C/c1ccc(O)c(O)c1/C=C/c1ccc(O)c(O)c1)O[C@H](Cc1ccc(O)c(O)c1)C(=O)O [salvianolic acid A]
IC50 [1]: 42.2 µM
inhibition at 50 µM [1, 3]: > 50%

Compound: COc1cc([C@H]2Oc3cc(-c4oc5cc(O)cc(O)c5c(=O)c4O)ccc3O[C@@H]2CO)ccc1O [2,3-dehydrosilybin A]
EC50 [1]: 7.3 µM
inhibition at 50 µM ([1]; at a concentration of 50 µM, concentration-effect curve, read-out: maximum of inhibition achieved): 64%
inhibition at 50 µM [1, 3]: > 50%
solubility under the assay conditions [2]: limited solubility

Compound: COc1cc([C@@H]2Oc3ccc([C@H]4Oc5cc(O)cc(O)c5C(=O)[C@@H]4O)cc3O[C@H]2CO)ccc1O [isosilybin B]
inhibition at 50 µM ([1]; pH 6, read-out: % Inhibition at c = 50 µM): 26%

Compound: icariside II
% Inhibition at c = 50 µM [1, 5]: 35%

Compound: phillyrin
% Inhibition at c = 50 µM [1, 5]: n.i.

Compound: C=C(C)[C@H](CC=C(C)C)Cc1c(O)cc(O)c2c1O[C@H](c1ccc(O)cc1O)CC2=O [sophoraflavanone G]
IC50 [1, 4]: 19.2 µM

inhibition at 50 µM [1, 3]: 20%
Compound: O=C(/C=C/c1ccc(O)c(O)c1)O[C@H](Cc1ccc(O)c(O)c1)C(=O)O [rosmarinic acid]
